Measured values from the NIST ThermoML archive (doi:10.1021/je500424b).
± gives the expanded uncertainty stated by the source.

Settings: Gas, Cylindrical cavity resonance method

O=C=O [carbon dioxide]
speed of sound (260 K, 317.37 kPa): 249.8 ± 0.051 m/s | speed of sound (260 K, 379.95 kPa): 249.06 ± 0.051 m/s | speed of sound (260 K, 434.17 kPa): 248.41 ± 0.05 m/s | speed of sound (260 K, 501.31 kPa): 247.6 ± 0.05 m/s | speed of sound (260 K, 562.69 kPa): 246.84 ± 0.05 m/s | speed of sound (260 K, 626.77 kPa): 246.05 ± 0.05 m/s | speed of sound (260 K, 701.21 kPa): 245.12 ± 0.05 m/s | speed of sound (260 K, 760.19 kPa): 244.37 ± 0.05 m/s | speed of sound (260 K, 822.03 kPa): 243.58 ± 0.05 m/s | speed of sound (260 K, 884.92 kPa): 242.76 ± 0.049 m/s | speed of sound (270 K, 305.05 kPa): 254.61 ± 0.051 m/s | speed of sound (270 K, 362.27 kPa): 254.01 ± 0.051 m/s | speed of sound (270 K, 460.73 kPa): 252.96 ± 0.051 m/s | speed of sound (270 K, 556.68 kPa): 251.92 ± 0.051 m/s | speed of sound (270 K, 644.89 kPa): 250.96 ± 0.051 m/s | speed of sound (270 K, 732.1 kPa): 250 ± 0.051 m/s | speed of sound (270 K, 819.89 kPa): 249.01 ± 0.051 m/s | speed of sound (270 K, 906.73 kPa): 248.03 ± 0.05 m/s | speed of sound (270 K, 977.38 kPa): 247.22 ± 0.05 m/s | speed of sound (280 K, 280.31 kPa): 259.38 ± 0.052 m/s | speed of sound (280 K, 362.38 kPa): 258.61 ± 0.052 m/s | speed of sound (280 K, 453.25 kPa): 257.75 ± 0.052 m/s | speed of sound (280 K, 537.04 kPa): 256.95 ± 0.052 m/s | speed of sound (280 K, 621.46 kPa): 256.13 ± 0.052 m/s | speed of sound (280 K, 692.2 kPa): 255.44 ± 0.052 m/s | speed of sound (280 K, 798.98 kPa): 254.39 ± 0.052 m/s | speed of sound (280 K, 884.2 kPa): 253.55 ± 0.051 m/s | speed of sound (280 K, 981.82 kPa): 252.56 ± 0.051 m/s | speed of sound (290 K, 228.71 kPa): 264.19 ± 0.053 m/s | speed of sound (290 K, 282.86 kPa): 263.73 ± 0.053 m/s | speed of sound (290 K, 355.64 kPa): 263.12 ± 0.053 m/s | speed of sound (290 K, 421.86 kPa): 262.56 ± 0.053 m/s | speed of sound (290 K, 490.56 kPa): 261.98 ± 0.053 m/s | speed of sound (290 K, 571.6 kPa): 261.28 ± 0.053 m/s | speed of sound (290 K, 655.16 kPa): 260.56 ± 0.053 m/s | speed of sound (290 K, 733.65 kPa): 259.88 ± 0.053 m/s | speed of sound (290 K, 819.49 kPa): 259.12 ± 0.052 m/s | speed of sound (300 K, 280.85 kPa): 268.06 ± 0.054 m/s | speed of sound (300 K, 340.26 kPa): 267.62 ± 0.054 m/s | speed of sound (300 K, 415.37 kPa): 267.05 ± 0.054 m/s | speed of sound (300 K, 500.85 kPa): 266.39 ± 0.054 m/s | speed of sound (300 K, 583.49 kPa): 265.76 ± 0.054 m/s | speed of sound (300 K, 663.9 kPa): 265.13 ± 0.054 m/s | speed of sound (300 K, 755.49 kPa): 264.42 ± 0.053 m/s | speed of sound (300 K, 847.25 kPa): 263.7 ± 0.053 m/s | speed of sound (300 K, 927.15 kPa): 263.07 ± 0.053 m/s | speed of sound (300 K, 1017.3 kPa): 262.36 ± 0.053 m/s | speed of sound (304.09 K, 434.91 kPa): 268.66 ± 0.054 m/s | speed of sound (304.09 K, 544.65 kPa): 267.86 ± 0.054 m/s | speed of sound (304.09 K, 772.25 kPa): 266.17 ± 0.054 m/s | speed of sound (304.09 K, 868.88 kPa): 265.45 ± 0.054 m/s | speed of sound (304.09 K, 968.58 kPa): 264.69 ± 0.054 m/s | speed of sound (312.75 K, 394.2 kPa): 272.63 ± 0.055 m/s | speed of sound (312.75 K, 441.68 kPa): 272.31 ± 0.055 m/s | speed of sound (312.75 K, 534.77 kPa): 271.69 ± 0.055 m/s | speed of sound (312.75 K, 636.23 kPa): 271 ± 0.055 m/s | speed of sound (312.75 K, 729.55 kPa): 270.37 ± 0.055 m/s | speed of sound (312.75 K, 858.54 kPa): 269.49 ± 0.054 m/s | speed of sound (312.75 K, 959.38 kPa): 268.8 ± 0.054 m/s | speed of sound (322.75 K, 314.03 kPa): 277.28 ± 0.056 m/s | speed of sound (322.75 K, 412.26 kPa): 276.69 ± 0.056 m/s | speed of sound (322.75 K, 522.36 kPa): 276.02 ± 0.056 m/s | speed of sound (322.75 K, 624.83 kPa): 275.4 ± 0.056 m/s | speed of sound (322.75 K, 735.59 kPa): 274.72 ± 0.055 m/s | speed of sound (322.75 K, 832.63 kPa): 274.13 ± 0.055 m/s | speed of sound (322.75 K, 929.78 kPa): 273.53 ± 0.055 m/s | speed of sound (332.75 K, 316.28 kPa): 281.3 ± 0.057 m/s | speed of sound (332.75 K, 415.5 kPa): 280.76 ± 0.057 m/s | speed of sound (332.75 K, 520.66 kPa): 280.19 ± 0.056 m/s | speed of sound (332.75 K, 544.84 kPa): 280.05 ± 0.056 m/s | speed of sound (332.75 K, 664.72 kPa): 279.39 ± 0.056 m/s | speed of sound (332.75 K, 755.5 kPa): 278.89 ± 0.056 m/s | speed of sound (332.75 K, 857.33 kPa): 278.33 ± 0.056 m/s | speed of sound (332.75 K, 958.15 kPa): 277.78 ± 0.056 m/s
